Assay results as given in patent publication US20250346643A1, “TROPOMYOSIN KINASE RECEPTOR (TRK) LIGANDS AS THERAPEUTICS TO SUPPORT LIVER REGENERATION” (Vanderbilt University, priority 2024, published 2025).

What was measured:
[1] = system: proliferating HSCs; settings: Gfap-Tk mice, carbon tetrachloride and allyl alcohol for 10 days, co-administration of ganciclovir; cited from earlier work
[2] = system: HepG2 cells; test: Cell proliferation assay (CellTiter-Glo) in HepG2 cells; type: cell-based, human; settings: Loxo-195 final concentration 5 nM, HepG2
Procedure: (§1) Cell lines. Human HepG2 (ATCC HB-8065) were maintained in MEM media with 10% FBS and the mouse hepatocyte cell line AML12 (ATCC, Manassas, VA; CRL-2254) in DMEM/F12 media supplemented with dexamethasone (40 ng/ml) and Insulin-Transferrin-Selenium (Gibco, Waltham, MA; 41400045), containing 10% FBS and 1% penicillin and streptomycin. JS1 (RRID: CVCL_C7PL), LX2 (RRID: CVCL_5792, MilliporeSigma, Burlington, MA; SCC064) and TWNT4 (RRID: CVCL_W296) cells were cultured in DMEM supplemented with 10% FBS. 293T cells (ATCC, Manassas, VA; CRL-3216) were cultured in DMEM supplemented with 10% FBS.
(§2) Cell proliferation assays. Primary mouse hepatocytes, HepG2 or AML 12 cells were grown in opaque-walled 96-well plates. NTF3 (final concentration 20 ng/ml) (STEMCELL Technologies, Vancouver, Canada; cat. 78074) and/or Loxo-195 (final concentration 5 nM) (Selleckchem, Houston, TX; S8636) were added into complete growth media without L-glutamine. Primary mouse hepatocytes were also grown in serum-free William's E media without supplements. Cells were analyzed by CellTiter-Glo® (Promega G7570, Madison, WI) which detects the number of viable cells on day 0 to day 5 by on detection systems GloMax® (Promega) or Bioteck Synergy H1 (Agilent, Santa Clara, CA). Mouse recombinant HGF (Abcam, Cambridge, UK; ab281797) was added to cell culture media at a final concentration 5 ng/ml. […]

[3] = system: AML12 cells; test: Cell proliferation assay (CellTiter-Glo) in AML12 cells; type: cell-based, mouse; settings: Loxo-195 final concentration 5 nM, AML12
Procedure: as §1, §2

[4] = system: CCND1; test: Western blot of CCND1 in HepG2 cell lysates; type: cell-based, human; settings: HepG2, Loxo-195 5-10 nM added to NTF3
Procedure: Human HepG2 and mouse AML12 cells were grown in 6-well plates. Cells were treated with NTF3 (20 ng/ml) purchased from STEMCELL technologies, Vancouver, Canada (cat. 78074), R&D Systems, Minneapolis, MN (267-N3), Gibco, Waltham, MA (PHC7036) and/or Loxo-195 (5-10 nM) (Selleckchem, Houston, TX; S8636) in complete growth media without L-glutamine for 2 hours. Lyophilized NTF3 was solubilized with sterile filtered PBS supplemented with 0.1% BSA, aliquoted and stored at −80° C. until use. […] HepG2 and AML12 cells were collected on ice in PBS, centrifuged for 10 sec […] cell pellet homogenized in RIPA buffer containing inhibitors (Roche, Basel, Switzerland; complete Mini proteinase inhibitor, 1×HALT phosphatase inhibitors, Thermo Scientific, Waltham, MA; cat. 78428). Cell lysates were sonicated and centrifuged for 10 min at 18,800×g. Protein concentration of supernatants were determined by Direct Detect Spectrophotometer (MilliporeSigma, Burlington, MA).
(§3) For immunoblot analysis, 30-50 μg of protein diluted in LSD sample buffer (Invitrogen, Waltham, MA) were analyzed per SDS-PAGE (NuPAGE™, Invitrogen, Waltham, MA) using MOPS buffer or MES buffer (Invitrogen, Waltham, MA). Gels were stained with Coomassie (Bio-Safe Coomassie G-250 Stain, Bio-Rad, Hercules, CA) and transferred onto PVDF membranes using semi-dry blotting (Trans-Blot SD, Bio-Rad, Hercules, CA). Images were visualized on an Amersham™ Imager 680 (Cytiva, Marlborough, MA). Semi-quantitative band densitometry was performed using ImageJ software (version 1.53).

[5] = system: P-TRKA Tyr674/675, P-TRKB Tyr706/707; test: Western blot of phosphorylated TRK in HepG2 cell lysates; type: cell-based, human; settings: HepG2, Loxo-195 added to NTF3
Procedure: Human HepG2 and mouse AML12 cells were grown in 6-well plates. […] Lyophilized NTF3 was solubilized with sterile filtered PBS supplemented with 0.1% BSA, aliquoted and stored at −80° C. until use. […] Cell lysates were sonicated and centrifuged for 10 min at 18,800×g. Protein concentration of supernatants were determined by Direct Detect Spectrophotometer (MilliporeSigma, Burlington, MA).
as §3, with “MA).” for “MA). Semi-quantitative band densitometry was performed using ImageJ software (version 1.53).”

[6] = system: mTORC1; test: Immunoblotting of HDOs for P-S6RP and P-P70S6K (mTORC1 activation); type: cell-based, human
Procedure: Human ductal organoids. The normal human liver tissue was obtained through the Cooperative Human Tissue Network (CHTN) at Vanderbilt University Medical Center. The liver was cut into very small pieces in liver digestion medium (Gibco, Waltham, MA; 17703-034). The cell suspension was filtered through a 100-μm cell strainer. The flow through was then centrifuged for 2 min at 100 g, 4° C., and the cell pellet resuspended in ice-cold DMEM (Gibco, Waltham, MA; 11885-084, supplemented by 5% FBS) and centrifuged for 2 min at 300 g. The cell pellet was gently resuspended in Matrigel® (Corning, Corning, NY; 356231) and a […] dome plated in a 24-well plate. The plate was incubated for 10-15 min at 37° C. After solidifying, complete HepatiCult™ Organoid Initiation Medium (OIM) (STEMCELL Technologies, Vancouver, Canada; 100-0384) was added. For passaging, the Matrigel dome was dissociated using TrypLE (Thermo Fisher Scientific, Waltham, MA; 12604013) and incubated at 37° C. for 5 mins. Organoids were washed by resuspending in advanced DMEM/F12 and consecutive resuspension of the organoid pellet. Organoids were resuspended at a 1:10 dilution in Matrigel® and cultured in complete HepatiCult™ Organoid Growth Medium (OGM) (STEMCELL Technologies, Vancouver, Canada; 100-0385) for organoid expansion. For hepatocytic differentiation of hepatic ductal organoids, culture medium was changed to complete HepatiCult™ Organoid Differentiation Medium (ODM) (STEMCELL Technologies, 100-0383) 4 days after passaging. Vehicle, NTF3, BDNF, HGF (20 ng/ml final concentration) or Taletrectinib (Fisher Scientific, Waltham, MA; 502030245, final concentration 10 nM) or torin2 (Fisher Scientific, Waltham, MA; s2817, final concentration 25 nM) were diluted in William's E (without L-glutamine) and added to organoids.
Immunoblotting. HDOs and mpPHH were homogenized in RIPA buffer containing proteinase inhibitors (Roche, Basel, Switzerland; cOmplete™ Mini protease inhibitor, 2 tab/10 ml buffer) and 1×HALT phosphatase inhibitors (Thermo Fisher Scientific, Waltham, MA; catalog no. 78428). Lysates were sonicated and then centrifuged for 10 min at 18,800 g. Protein concentration of supernatants was determined by Direct Detect Spectrophotometer (MilliporeSigma, Burlington, MA). HDOs were treated with growth factors as described above. Lyophilized NTF3 was solubilized with sterile-filtered PBS supplemented with 0.1% BSA, aliquoted, and stored at −80° C. until use. […] HDOs and mpPHH were collected on ice in PBS and centrifuged for 10 s, and the cell pellet was homogenized in RIPA buffer containing inhibitors (Roche, Basel, Switzerland; cOmplete™ Mini protease inhibitor, 1×HALT phosphatase inhibitors, Thermo Fisher Scientific, Waltham, MA; catalog no. 78428). Cell lysates were sonicated and centrifuged for 10 min at 18,800 g. The protein concentration of supernatants was determined by a Direct Detect® spectrophotometer (MilliporeSigma, Burlington, MA). For immunoblot analysis, 10 to 50 μg of protein diluted in […] sample buffer (Invitrogen, Waltham, MA) were analyzed per SDS-polyacrylamide gel electrophoresis (NuPAGE™, Invitrogen, Waltham, MA) using Mops buffer or MES buffer (Invitrogen, Waltham, MA). […] Semi-quantitative band densitometry was performed using ImageJ software (version 1.53).

[7] = system: mTOR; test: Immunoblotting of mpPHH for P-S6RP and P-P70S6K (mTOR activation); type: cell-based, human; settings: co-incubation with Torin2
Procedure: (§4) Mouse passaged primary human hepatocytes. Mouse-passaged primary human hepatocytes (mpPHHs) were collected as previously described (Michailidis et al., Proc Natl Acad Sci USA. 2020; 117(3): 1678-1688) and cultured in hepatocyte culture media (CC-3198, Lonza, Basel, Switzerland) in collagen-coated chamber slides. Three days before treatment, mpPHH were incubated in William's E media (with L-glutamine). […] 5-15 images per treatment per experiment were randomly taken and EdU positive nuclei quantified.
(§5) Immunoblotting. […] Protein concentration of supernatants was determined by Direct Detect Spectrophotometer (MilliporeSigma, Burlington, MA). […] The protein concentration of supernatants was determined by a Direct Detect® spectrophotometer (MilliporeSigma, Burlington, MA). For immunoblot analysis, 10 to 50 μg of protein diluted in […] sample buffer (Invitrogen, Waltham, MA) were analyzed per SDS-polyacrylamide gel electrophoresis (NuPAGE™, Invitrogen, Waltham, MA) using Mops buffer or MES buffer (Invitrogen, Waltham, MA). […] Semi-quantitative band densitometry was performed using ImageJ software (version 1.53).

[8] = system: CCND1 and PCNA; test: Immunoblotting of HDOs for CCND1 and PCNA; type: cell-based, human; settings: co-incubation with torin2
Procedure: Human ductal organoids. The normal human liver tissue was obtained through the Cooperative Human Tissue Network (CHTN) at Vanderbilt University Medical Center. The liver was cut into very small pieces in liver digestion medium (Gibco, Waltham, MA; 17703-034). The cell suspension was filtered through a 100-μm cell strainer. The flow through was then centrifuged for 2 min at 100 g, 4° C., and the cell pellet resuspended in ice-cold DMEM (Gibco, Waltham, MA; 11885-084, supplemented by 5% FBS) and centrifuged for 2 min at 300 g. The cell pellet was gently resuspended in Matrigel® (Corning, Corning, NY; 356231) and a […] dome plated in a 24-well plate. The plate was incubated for 10-15 min at 37° C. […]
as §5

[9] = system: CCND1 and PCNA; test: Immunoblotting of mpPHH for CCND1 and PCNA; type: cell-based, human; settings: mpPHHs, co-incubation with torin2
Procedure: as §4, §5

[10] = target: T1, TrkB (Homo sapiens, UniProt Q16620); settings: read-out: Kd (agonist of TrkB); cited from earlier work
T1 sequence (Q16620 32-822, species assumed): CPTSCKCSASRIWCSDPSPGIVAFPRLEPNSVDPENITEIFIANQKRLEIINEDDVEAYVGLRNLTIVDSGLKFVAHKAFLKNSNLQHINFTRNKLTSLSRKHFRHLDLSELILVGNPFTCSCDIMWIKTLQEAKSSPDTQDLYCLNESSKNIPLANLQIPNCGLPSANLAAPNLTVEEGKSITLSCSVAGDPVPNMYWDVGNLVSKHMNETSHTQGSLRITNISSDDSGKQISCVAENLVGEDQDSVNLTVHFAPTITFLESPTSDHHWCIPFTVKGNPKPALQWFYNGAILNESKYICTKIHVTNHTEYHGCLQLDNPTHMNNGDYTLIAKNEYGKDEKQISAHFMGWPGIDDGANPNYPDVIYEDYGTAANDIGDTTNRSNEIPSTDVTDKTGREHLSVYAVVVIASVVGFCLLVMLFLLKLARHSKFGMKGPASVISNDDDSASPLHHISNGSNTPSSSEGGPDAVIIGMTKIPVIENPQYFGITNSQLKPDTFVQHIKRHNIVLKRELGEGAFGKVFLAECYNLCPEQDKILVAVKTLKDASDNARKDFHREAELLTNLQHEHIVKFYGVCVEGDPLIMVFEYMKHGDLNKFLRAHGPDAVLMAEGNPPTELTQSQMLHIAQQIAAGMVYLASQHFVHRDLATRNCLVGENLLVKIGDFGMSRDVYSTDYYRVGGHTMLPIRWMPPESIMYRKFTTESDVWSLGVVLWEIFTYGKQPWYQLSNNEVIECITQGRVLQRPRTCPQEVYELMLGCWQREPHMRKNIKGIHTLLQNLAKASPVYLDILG

[11] = in vivo, cited from earlier work
[12] = target: T1, TrkB; settings: cited from earlier work
[13] = target: T1, TrkB; settings: read-out: IC50 for inhibition of BDNF binding to TrkB; cited from earlier work
[14] = target: TRKB (tropomyosin receptor kinase B, encoded by Ntrk2) on primary mouse hepatocytes (mouse) (UniProt P15209); test: cell-based or functional assay
TRKB (tropomyosin receptor kinase B, encoded by Ntrk2) on primary mouse hepatocytes (mouse), sequence (P15209 32-821): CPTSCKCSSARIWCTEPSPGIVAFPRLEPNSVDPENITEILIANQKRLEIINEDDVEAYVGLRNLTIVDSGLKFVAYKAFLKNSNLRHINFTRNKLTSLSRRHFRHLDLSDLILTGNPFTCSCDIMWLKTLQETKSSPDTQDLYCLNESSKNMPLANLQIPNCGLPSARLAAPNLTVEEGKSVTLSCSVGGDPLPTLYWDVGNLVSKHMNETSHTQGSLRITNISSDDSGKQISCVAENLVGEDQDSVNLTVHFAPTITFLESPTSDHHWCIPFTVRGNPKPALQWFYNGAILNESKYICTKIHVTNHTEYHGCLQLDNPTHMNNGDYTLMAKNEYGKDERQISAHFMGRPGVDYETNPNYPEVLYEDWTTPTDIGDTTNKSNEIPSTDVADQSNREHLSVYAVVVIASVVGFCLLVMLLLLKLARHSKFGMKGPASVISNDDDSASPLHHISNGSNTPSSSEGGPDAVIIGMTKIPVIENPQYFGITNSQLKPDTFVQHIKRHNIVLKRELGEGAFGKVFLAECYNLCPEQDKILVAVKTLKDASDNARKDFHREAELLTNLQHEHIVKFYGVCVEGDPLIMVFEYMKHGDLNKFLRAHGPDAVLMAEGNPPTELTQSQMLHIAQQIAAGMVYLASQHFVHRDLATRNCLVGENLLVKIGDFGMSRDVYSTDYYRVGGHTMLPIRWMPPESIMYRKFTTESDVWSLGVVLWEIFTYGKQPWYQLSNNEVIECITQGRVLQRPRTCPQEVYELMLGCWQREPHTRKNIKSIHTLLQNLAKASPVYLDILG

In the case of `Nc1nc(O)c2ncn(COC(CO)CO)c2n1` [ganciclovir], the “depletion rate of proliferating HSCs” value [1] is given as “approximately 65%”.

For `C[C@@H]1CCc2ncc(F)cc2[C@H]2CCCN2c2ccn3ncc(c3n2)C(=O)N1` [Loxo-195, reference compound], the “inhibition of NTF3-induced proliferation” value [2] was “significantly inhibited proliferation”, the “inhibition of NTF3-induced proliferation” value [3] was “significantly inhibited proliferation” and the “effect on NTF3-induced CCND1 abundance” value [4] was “inhibited”. The “effect on NTF3-induced TRK phosphorylation” value [5] was “decreased”.

In the case of `Nc1ccc(-c2ccc3ncc4ccc(=O)n(-c5cccc(C(F)(F)F)c5)c4c3c2)cn1` [Torin2, reference compound], the “effect on NTF3- or insulin-induced phosphorylation of p70S6 kinase and S6RP” value ([6]; HDO, co-incubation with Torin2 25 nM) is reported as “decreased”, the “phosphorylated S6rp (Ser240/244)” value ([6]; HDOs cultured in glutamine free media, coincubation (FIG. 18G), Torin2 25 nM) is reported as “decreased phosphorylated S6rp” and the “effect on NTF3-induced P-S6RP and P-P70S6K” value [7] is reported as “inhibited”. The “effect on NTF3-induced CCND1 and PCNA” value [8] was “inhibited” and the “effect on NTF3-induced CCND1 and PCNA” value [9] was “inhibited”.

In the case of `O=c1cc(-c2ccccc2)oc2c(O)c(O)ccc12` [7,8-DHF, 7,8-dihydroxyflavone], the Kd [10] is listed as about 0.32 µM, the oral bioavailability ([11]; po) is listed as “orally bioavailable” and the blood-brain barrier penetration [11] is listed as “able to penetrate the blood-brain barrier”.

For `O=C(NCCO)c1cc(C(=O)NCCO)cc(C(=O)NCCO)c1` [LM22A-4], the “intrinsic activity (IA)” value ([12]; partial agonist of TrkB) is given as “about 85%”, the EC50 ([12]; read-out: EC50 for TrkB activation) is given as 0.0002 to 0.0005 µM and the IC50 [13] is given as 0.047 µM.

Compound “recombinant neurotrophin-3 (NTF3) (from UniProt P20783 139-257) (ligand)” has a proliferation of primary mouse hepatocytes (CellTiter-Glo), NTF3 20 ng/ml against vehicle [14] of 1.5 fold.
